This note sets out measurements from patent US20220031629A1, “OPHTHALMIC COMPOSITIONS FOR REMOVING MEIBUM OR INHIBITING MEIBUM BUILDUP” (Altaire Pharmaceuticals, Inc., priority 2020, published 2022).

This series has as its system normal human keratinocytes/stratified squamous epithelium (EPIOCULAR model). The series can be described thus: Ocular irritation MTT assay (EPIOCULAR model). The class given is cell-based. The procedure: Another ocular irritation study was done by exposing a microemulsion containing polyoxyl 35 castor oil in accordance with an embodiment of the present disclosure onto normal human keratinocytes/stratified squamous epithelium which is similar to that found in the cornea epithelium of the human eye (EPIOCULAR model), and then checking tissue viability with MTT assay for cytotoxicity after incubation in comparison with a water control (Cyprotex).

Turning to `COC(C)=O` [Methyl Acetate], the “Irritation Response (Irritant if ≤ 60%)” value (MTT assay) is “Positive”. Besides, the “Mean Tissue Viability” value (MTT assay after incubation, in comparison with water control) was determined as 31.1%.
